Earlier results as cited in patent US20080200497A1, “Hepatitis C Inhibitor Peptide Analogs” (priority 2005, published 2008).

Tested on: hepatitis C virus
Conditions: two day clinical trial, patients infected with the hepatitis C virus

COc1ccc2c(O[C@@H]3C[C@H]4C(=O)N[C@]5(C(=O)O)C[C@H]5/C=C\CCCCC[C@H](NC(=O)OC5CCCC5)C(=O)N4C3)cc(-c3csc(NC(C)C)n3)nc2c1 [BILN 2061]
reduction of viral loads: effective in rapidly reducing viral loads
